Results: the supplement of paper PMC10307832

Assays:
Assay in all cases: relative viability (nuclei count vs DMSO), 5 days (fraction); higher = more cells survive
HCC-827 = conditions: first compound 0.5 µM
Outline: (§1)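 Relative viability was taken as the ratio of nuclei in treated wells to nuclei in vehicle wells. Lung cancer cell lines in 1536-well plates received compounds by pin tool one day after seeding, either one drug alone or a fixed anchor-drug dose plus five library-drug doses (not always all listed) in √10 steps. Nuclei were counted on 4× images after 5 days of treatment, and values are medians of duplicate plates.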

NCI-H460 = system: NCI-H460
Outline: as §1

NCI-H23 = system: NCI-H23
Outline: as §1

SW 1573 = system: SW 1573
Outline: as §1

NCI-H1355 = system: NCI-H1355
Outline: as §1

NCI-H1437 = system: NCI-H1437
Outline: as §1

NCI-H1915 = system: NCI-H1915
Outline: as §1

NCI-H727 = system: NCI-H727
Outline: as §1

HCC-366 = system: HCC-366
Outline: as §1

NCI-H1755 = system: NCI-H1755
Outline: as §1

COR-L 105 = system: COR-L 105
Outline: as §1

LCLC-103H = system: LCLC-103H
Outline: as §1

Compound `CC1(C)CCC(c2ccc(Cl)cc2)=C(CN2CCN(c3ccc(C(=O)NS(=O)(=O)c4ccc(N[C@H](CCN5CCOCC5)CSc5ccccc5)c(S(=O)(=O)C(F)(F)F)c4)cc3)CC2)C1` [Navitoclax] + CC(C)C[C@H](NC(=O)[C@H](Cc1ccccc1)NC(=O)c1cnccn1)B(O)O [Bortezomib] (partner 0.002 µM) has a relative viability (HCC-827) of 0.999, a relative viability (NCI-H460; first compound 0.005 µM) of 1.1 and a relative viability (NCI-H460; first compound 0.01581 µM) of 1.16. The relative viability (NCI-H460; first compound 0.05 µM) was 1.4, the relative viability (NCI-H460; first compound 0.1581 µM) was 1.01 and the relative viability (NCI-H460; first compound 0.5 µM) was 0.983. For the same compound, the relative viability (NCI-H23; first compound 0.005 µM) was 0.894, the relative viability (NCI-H23; first compound 0.01581 µM) was 1.3 and the relative viability (NCI-H23; first compound 0.05 µM) was 1.24. The relative viability (NCI-H23; first compound 0.1581 µM) was 1.02, the relative viability (NCI-H23; first compound 0.5 µM) was 1.02 and the relative viability (SW 1573; first compound 0.005 µM) was 1.04. It also gave a relative viability (SW 1573; first compound 0.01581 µM) of 1.24, a relative viability (SW 1573; first compound 0.05 µM) of 0.895 and a relative viability (SW 1573; first compound 0.1581 µM) of 0.796. The relative viability (SW 1573; first compound 0.5 µM) was 1.15, the relative viability (NCI-H1355; first compound 0.005 µM) was 1.02 and the relative viability (NCI-H1355; first compound 0.01581 µM) was 1.24. The relative viability (NCI-H1355; first compound 0.05 µM) was 1.06, the relative viability (NCI-H1355; first compound 0.1581 µM) was 1.15 and the relative viability (NCI-H1355; first compound 0.5 µM) was 1.14. For the same compound, the relative viability (NCI-H1437; first compound 0.005 µM) was 0.503, the relative viability (NCI-H1437; first compound 0.01581 µM) was 0.589 and the relative viability (NCI-H1437; first compound 0.05 µM) was 0.589. For the same compound, the relative viability (NCI-H1437; first compound 0.1581 µM) was 0.495, the relative viability (NCI-H1437; first compound 0.5 µM) was 0.47 and the relative viability (NCI-H1915; first compound 0.005 µM) was 0.969. It also gave a relative viability (NCI-H1915; first compound 0.01581 µM) of 0.925, a relative viability (NCI-H1915; first compound 0.05 µM) of 0.82 and a relative viability (NCI-H1915; first compound 0.1581 µM) of 0.865. It also gave a relative viability (NCI-H1915; first compound 0.5 µM) of 0.929, a relative viability (NCI-H727; first compound 0.005 µM) of 0.898 and a relative viability (NCI-H727; first compound 0.01581 µM) of 0.888. The relative viability (NCI-H727; first compound 0.1581 µM) was 1.05, the relative viability (NCI-H727; first compound 0.5 µM) was 0.767 and the relative viability (HCC-366; first compound 0.005 µM) was 1. The relative viability (HCC-366; first compound 0.01581 µM) was 1.06, the relative viability (HCC-366; first compound 0.05 µM) was 0.539 and the relative viability (HCC-366; first compound 0.1581 µM) was 0.974. The relative viability (HCC-366; first compound 0.5 µM) was 1.04, the relative viability (NCI-H1755; first compound 0.005 µM) was 0.929 and the relative viability (NCI-H1755; first compound 0.01581 µM) was 1.01. For the same compound, the relative viability (NCI-H1755; first compound 0.05 µM) was 0.723, the relative viability (NCI-H1755; first compound 0.1581 µM) was 0.903 and the relative viability (NCI-H1755; first compound 0.5 µM) was 0.924. For the same compound, the relative viability (COR-L 105; first compound 0.005 µM) was 0.977, the relative viability (COR-L 105; first compound 0.01581 µM) was 1.31 and the relative viability (COR-L 105; first compound 0.05 µM) was 0.712. For the same compound, the relative viability (COR-L 105; first compound 0.1581 µM) was 0.875, the relative viability (COR-L 105; first compound 0.5 µM) was 0.584 and the relative viability (LCLC-103H; first compound 0.005 µM) was 1.13. The relative viability (LCLC-103H; first compound 0.01581 µM) was 1.25, the relative viability (LCLC-103H; first compound 0.05 µM) was 1.18 and the relative viability (LCLC-103H; first compound 0.1581 µM) was 1.15. The relative viability (LCLC-103H; first compound 0.5 µM) was 1.06.
